In patent publication US4789542A, “Radioiodinated glucose analogues for use as imaging agents” (The United States of America as represented by the United …, priority 1986, dated 1988):
Like-named read-outs stand apart in the source and are kept apart here.

Experiment: Distribution of radioactivity in tissues of female rats after intravenous administration
Type: in vivo
Settings: rat; for Brain/Blood ratio / Distribution of radioactivity, Brain / Heart/Blood ratio / tissue uptake at 5 min / tissue uptake at 0.25 h / tissue uptake at 0.5 h / tissue uptake at 1 h: mean; for tissue uptake at 5 min / tissue uptake at 0.25 h / tissue uptake at 0.5 h / tissue uptake at 1 h: iv
Protocol: A test radiopharmaceutical methyl-2-deoxy-2-(E)-[^125 I]-iodovinyl-2,4,6-0-triacetyl-β-D-altropyranoside 6 was prepared to establish that a deoxy substituted iodovinyl carbohydrate could be delivered to the brain in significant levels with prolonged retention. One novel aspect of the invention was the scission of an anhydro sugar with the Grignard reagent. This technique was chosen because a variety of 2-deoxy iodovinyl carbohydrates could be prepared depending on the position of the anhydro group within the pyranose ring. The process of the synthesis is shown in the drawing.
The distribution of radioactivity in tissues of female rats at 5 minutes, 15 minutes, 30 minutes and 60 minutes after intravenous administration of the iodinated compound is shown in the following table. The level of accumulation of radioactivity in the brain after injection of this agent was a significant 1.65 percent dose/g at 5 minutes but the blood levels were also high resulting in blood ratios of 1.6/1 at 5 minutes.

**Q.** For CO[C@@H]1O[C@H](COC(C)=O)[C@@H](OC(C)=O)[C@@H](OC(C)=O)[C@@H]1/C=C/[125I] [methyl-2-deoxy-2-(E)-[^125 I]-iodovinyl-2,4,6-0-triacetyl-β-D-altropyranoside], which Brain/Blood ratio (5 min) is on record?
**A.** 1.5666

**Q.** What about the “Distribution of radioactivity, Brain” value (5 min) of the same compound?
**A.** 1.6525 percent dose/g

**Q.** And the Heart/Blood ratio (5 min)?
**A.** 1.0776

**Q.** What about the Brain/Blood ratio (15 min) of the same compound?
**A.** 1.2775

**Q.** And the Heart/Blood ratio (15 min)?
**A.** 1.1490

**Q.** And the Brain/Blood ratio (30 min)?
**A.** 1.1035

**Q.** And the Heart/Blood ratio (30 min)?
**A.** 1.0809

**Q.** And the Brain/Blood ratio (60 min (1 hr))?
**A.** 1.1087

**Q.** What about the Heart/Blood ratio (60 min (1 hr)) of the same compound?
**A.** 1.0408

**Q.** What about the “Distribution of radioactivity, Brain” value (60 min (1 hr), 60 min) of the same compound?
**A.** 0.7237 percent dose/g

**Q.** What about the “Brain retention at 60 minutes compared with the peak uptake at 5 minutes” value (60 min vs 5 min) of the same compound?
**A.** 50%

**Q.** And the tissue uptake at 5 min (blood, 5 min, read-out: Distribution of radioactivity, Blood)?
**A.** 1.05 %ID/g

**Q.** What about the tissue uptake at 0.25 h (blood, 15 min, read-out: Distribution of radioactivity, Blood) of the same compound?
**A.** 0.933 %ID/g

**Q.** What about the tissue uptake at 0.5 h (blood, 30 min, read-out: Distribution of radioactivity, Blood) of the same compound?
**A.** 0.0037 %ID/g

**Q.** What about the tissue uptake at 1 h (blood, 60 min (1 hr), read-out: Distribution of radioactivity, Blood) of the same compound?
**A.** 0.653 %ID/g

**Q.** What about the tissue uptake at 5 min (brain, 5 min, read-out: Distribution of radioactivity, Brain) of the same compound?
**A.** 1.65 %ID/g

**Q.** And the tissue uptake at 0.25 h (brain, 15 min, read-out: Distribution of radioactivity, Brain)?
**A.** 1.19 %ID/g

**Q.** And the tissue uptake at 0.5 h (brain, 30 min, read-out: Distribution of radioactivity, Brain)?
**A.** 0.891 %ID/g

**Q.** And the tissue uptake at 1 h (brain, 60 min (1 hr), read-out: Distribution of radioactivity, Brain)?
**A.** 0.72 %ID/g

**Q.** What about the tissue uptake at 5 min (kidney, 5 min, read-out: Distribution of radioactivity, Kidney) of the same compound?
**A.** 1.55 %ID/g

**Q.** And the tissue uptake at 0.25 h (kidney, 15 min, read-out: Distribution of radioactivity, Kidney)?
**A.** 1.57 %ID/g

**Q.** And the tissue uptake at 0.5 h (kidney, 30 min, read-out: Distribution of radioactivity, Kidney)?
**A.** 1.7 %ID/g

**Q.** And the tissue uptake at 1 h (kidney, 60 min (1 hr), read-out: Distribution of radioactivity, Kidney)?
**A.** 1.57 %ID/g

**Q.** And the tissue uptake at 5 min (liver, 5 min, read-out: Distribution of radioactivity, Liver)?
**A.** 1.39 %ID/g

**Q.** What about the tissue uptake at 0.25 h (liver, 15 min, read-out: Distribution of radioactivity, Liver) of the same compound?
**A.** 1.37 %ID/g

**Q.** What about the tissue uptake at 0.5 h (liver, 30 min, read-out: Distribution of radioactivity, Liver) of the same compound?
**A.** 1.23 %ID/g

**Q.** What about the tissue uptake at 1 h (liver, 60 min (1 hr), read-out: Distribution of radioactivity, Liver) of the same compound?
**A.** 1.05 %ID/g

**Q.** What about the tissue uptake at 5 min (lung, 5 min, read-out: Distribution of radioactivity, Lung) of the same compound?
**A.** 1.19 %ID/g

**Q.** And the tissue uptake at 0.25 h (lung, 15 min, read-out: Distribution of radioactivity, Lung)?
**A.** 1.03 %ID/g

**Q.** And the tissue uptake at 0.5 h (lung, 30 min, read-out: Distribution of radioactivity, Lung)?
**A.** 0.833 %ID/g

**Q.** And the tissue uptake at 1 h (lung, 60 min (1 hr), read-out: Distribution of radioactivity, Lung)?
**A.** 0.663 %ID/g

**Q.** And the tissue uptake at 5 min (thyroid, 5 min, read-out: Distribution of radioactivity, Thyroid)?
**A.** 20.6 %ID/g

**Q.** And the tissue uptake at 0.25 h (thyroid, 15 min, read-out: Distribution of radioactivity, Thyroid)?
**A.** 18.9 %ID/g

**Q.** And the tissue uptake at 0.5 h (thyroid, 30 min, read-out: Distribution of radioactivity, Thyroid)?
**A.** 25.7 %ID/g

**Q.** And the tissue uptake at 1 h (thyroid, 60 min (1 hr), read-out: Distribution of radioactivity, Thyroid)?
**A.** 33.5 %ID/g

**Q.** What about the “Retention in the brain” value (up to 60 min) of the same compound?
**A.** prolonged retention in the brain

**Q.** What about the “Stability to in vivo deiodination (from low thyroid accumulation)” value (up to 60 min) of the same compound?
**A.** demonstrated the stability of this agent to in vivo deiodination
